In patent US20150139987A1, “TREATMENT OF HOMOZYGOUS FAMILIAL HYPERCHOLESTEROLEMIA” (CymaBay Therapeutics, Inc., priority 2013, published 2015):
Read-outs that look alike come from different tables or passages of the source. Blank lines part the entries; values can stand above or below the molecule they belong to.

Assays:
[1] = test system: knockout mice lacking LDLR; experiment: Lipid lowering in knockout mice lacking LDLR; assay type: in vivo
LDL particle size = conditions: pattern B <25.75 nm, I 25.75-26.34 nm, A >26.34 nm; US 2010-0152295; cited from earlier work
[2] = test system: subjects with mixed dyslipidemia; conditions: cited from earlier work; for reduction of LDL-C: 100 mg/day; for reduction of alkaline phosphatase: control group 4%
subjects with HoFH = experiment: Example 1: study with MBX-8025 in HoFH; assay type: in vivo, human; conditions: MBX-8025 L-lysine dihydrate salt 50, 100, or 200 mg/day
Procedure: Subjects are permitted their usual other medications, including lipid-lowering treatments. […] MRIs of the subjects' livers are taken every 4 weeks during the study and 4 weeks after study completion, to determine hepatic fat. At each visit, after a 12-hour fast, blood is drawn and urine collected; and a standard metabolic panel, complete blood count, and standard urinalysis are performed. Blood is analyzed for TC, HDL-C, LDL-C, VLDL-C, TG, and apoB. The subjects also maintain health diaries, which are reviewed at each visit.

[3] = molecular target: T1, peroxisome proliferator-activated receptor-δ (PPARδ) (Homo sapiens, UniProt Q03181); experiment: PPARδ agonist potency; assay type: biochemical
T1 sequence (Q03181 1-441): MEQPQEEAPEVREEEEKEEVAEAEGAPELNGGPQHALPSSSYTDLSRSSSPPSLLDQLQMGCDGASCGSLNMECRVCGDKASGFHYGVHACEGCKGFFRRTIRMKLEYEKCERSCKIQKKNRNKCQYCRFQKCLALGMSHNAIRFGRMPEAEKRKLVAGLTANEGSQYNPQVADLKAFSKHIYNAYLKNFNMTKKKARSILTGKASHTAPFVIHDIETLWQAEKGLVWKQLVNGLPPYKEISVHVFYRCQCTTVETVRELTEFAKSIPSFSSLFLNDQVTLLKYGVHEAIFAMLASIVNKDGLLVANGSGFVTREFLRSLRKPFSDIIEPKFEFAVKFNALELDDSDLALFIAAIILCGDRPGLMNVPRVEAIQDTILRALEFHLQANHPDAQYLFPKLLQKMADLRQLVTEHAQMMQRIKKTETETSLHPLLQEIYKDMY
Source text: (§1) PPARδ activation stimulates fatty acid oxidation and utilization, improves plasma lipid and lipoprotein metabolism, glucose utilization, and mitochondrial respiration, and preserves stem cell homeostasis.

PPARα = molecular target: T2, PPARα (Homo sapiens, UniProt Q07869); experiment: Specificity for PPARδ compared with PPARα; assay type: biochemical
T2 sequence (Q07869 1-468): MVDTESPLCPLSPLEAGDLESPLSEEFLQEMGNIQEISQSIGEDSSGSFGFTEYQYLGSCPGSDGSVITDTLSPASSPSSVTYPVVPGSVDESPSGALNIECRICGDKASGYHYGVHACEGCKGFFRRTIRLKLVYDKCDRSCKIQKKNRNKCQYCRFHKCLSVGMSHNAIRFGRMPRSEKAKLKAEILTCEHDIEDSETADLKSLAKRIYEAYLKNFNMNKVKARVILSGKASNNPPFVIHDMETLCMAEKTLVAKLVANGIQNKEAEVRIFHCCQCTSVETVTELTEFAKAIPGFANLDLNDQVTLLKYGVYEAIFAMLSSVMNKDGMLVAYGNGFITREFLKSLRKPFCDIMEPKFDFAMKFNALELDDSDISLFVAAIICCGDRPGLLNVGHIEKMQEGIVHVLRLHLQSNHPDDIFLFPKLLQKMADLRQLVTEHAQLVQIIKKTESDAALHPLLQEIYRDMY
Source text: as §1

patients with HoFH [4] = conditions: cited from earlier work
[5] = test system: healthy volunteers with hypercholesterolemia; conditions: cited from earlier work
patients with HeFH [6] = conditions: cited from earlier work
[7] = test system: patients with hypercholesterolemia; conditions: week 12; sc 50, 100, 150 mg twice monthly or 200, 300 mg once monthly; cited from earlier work
patients with HoFH [8] = conditions: added to maximally tolerated lipid lowering medications in HoFH patients; cited from earlier work
[9] = in vivo, cited from earlier work
[10] = test system: patients with HoFH, HeFH, severe hyperlipidemia, high-risk coronary heart disease; conditions: human, in vivo; cited from earlier work
apoB mRNA = conditions: HepG2, Hep3B, human and cynomolgus monkey primary hepatocytes; cited from earlier work
[11] = test system: hypercholesterolemic subjects; conditions: cited from earlier work
patients with HeFH [12] = conditions: cited from earlier work; remark: listed apart in the source
[13] = alone and in combination with atorvastatin, 8 weeks

EC50 [3]: 2 nM
specificity for PPARδ compared with PPARα (PPARα): > 600 fold
Molecule: CCO[C@H](COc1ccc(C(F)(F)F)cc1)CSc1ccc(OCC(=O)O)c(C)c1 [MBX-8025, (R)-2-(4-((2-ethoxy-3-(4-(trifluoromethyl)phenoxy)propyl)thio)-2-methylphenoxy)acetic acid]
LDLR dependence of LDL-C lowering [1]: do not require an effective LDLR to lower LDL-C and improve other lipid parameters
LDL particle size pattern conversion (LDL particle size): converts LDL particle size pattern I to pattern A; and from pattern B to pattern I or A
reduction of LDL-C ([2]; tertile with the highest starting LDL-C levels (187-205 mg/dL)): 35%
reduction of LDL-C ([2]; total population treated): 22%
decrease of LDL-S/VS ([2]; 8 weeks): 40-48%
increase of LDL-L ([2]; 8 weeks): 34-44%
reduction of apoB 100 compared to placebo ([2]; MBX-8025 50 or 100 mg alone and in combination with atorvastatin 20 mg, 8 weeks): 20-38%
raising of HDL-C [2, 13]: 1-12%
reduction of LDL compared to placebo [2, 13]: 18-43%
reduction of free fatty acids compared to placebo [2, 13]: 16-28%
reduction of high-sensitivity C-reactive protein compared to placebo [2, 13]: 43-72%
reduction of non-HDL-C compared to placebo [2, 13]: 18-41%
reduction of triglycerides compared to placebo [2, 13]: 26-30%
reduction of γ-glutamyl transpeptidase ([2]; control group 3%): 24-28%
reduction of alkaline phosphatase [2]: 32-43%
insulin sensitivity (HOMA-IR, fasting plasma glucose, insulin) ([2]; in vivo): increases insulin sensitivity
reduction of the percentage of subjects meeting the criteria for metabolic syndrome ([2]; in vivo): > 2 fold
safety and tolerability ([2]; in vivo): safe and generally well-tolerated
serum aminotransferases ([2]; in vivo): reducing serum aminotransferases
waist circumference and lean body mass ([2]; in vivo): trends towards a decrease in waist circumference and increase in lean body mass
effect on TC, LDL-C, VLDL-C, TG, apoB and HDL-C (subjects with HoFH): dose-dependent lowering of TC, LDL-C, VLDL-C, TG and apoB, and raising of HDL-C

Molecule: CC(C)c1c(C(=O)Nc2ccccc2)c(-c2ccccc2)c(-c2ccc(F)cc2)n1CC[C@@H](O)C[C@@H](O)CC(=O)O [atorvastatin, reference compound]
decrease of LDL-L ([2]; 8 weeks): 30%
decrease of LDL-S/VS ([2]; 8 weeks): 25%
increase of γ-glutamyl transpeptidase ([2]; 8 weeks): 2%
reduction of alkaline phosphatase [2]: 6%

Molecule: O=C(NC1CCN(CCCCC2(C(=O)NCC(F)(F)F)c3ccccc3-c3ccccc32)CC1)c1ccccc1-c1ccc(C(F)(F)F)cc1 [lomitapide, N-(2,2,2-trifluoroethyl)-9-(4-(4-(4′-(trifluoromethyl)-[1,1′-biphenyl]-2-ylcarboxamido)piperidin-1-yl)butyl)-9H-fluorene-9-carboxamide]
patients reporting gastrointestinal adverse reactions (patients with HoFH [4]; 27 of 29 patients, Phase 3 trial): 93%
patients reporting vomiting, dyspepsia and abdominal pain (each) (patients with HoFH [4]; AEs reported by 8 or more of 29 patients): ≥ 28%
patients reporting diarrhea (patients with HoFH [4]; Phase 3 trial, 29 patients): 79%
patients reporting nausea (patients with HoFH [4]; Phase 3 trial, 29 patients): 65%
patients who discontinued the trial for AEs (patients with HoFH [4]; of the 29 patients): Five
reduction of LDL-C [5]: up to 65%

Molecule: Alirocumab: anti-PCSK9 antibody
reduction in LDL-C (patients with HeFH [6]; 150 mg/2 weeks sc): 68%
reduction in LDL-C (patients with HeFH [6]; 150 mg/4 weeks sc): 29%
tolerability (patients with HeFH [6]; in vivo): well tolerated

Molecule: Bococizumab: anti-PCSK9 antibody
effect on LDL-C [7]: significant reductions in LDL-C at week 12

Molecule: mipomersen
reduction of LDL-C (patients with HoFH [8]): 25%
absorption time to maximum concentration ([9]; sc): 3 to 4 h
distribution half-life ([9]; sc): 2 to 5 h
elimination half-life ([9]; sc): 1-2 months
time to steady-state plasma trough [9]: ≤ 6 months
alanine aminotransferase ≧3× upper limit of normal [10]: 10%
aspartate aminotransferase ≧3× upper limit of normal [10]: 16%
flu-like symptoms (such as fatigue, fever, and chills) [10]: 30%
injection site reactions [10]: 84%
patients who discontinued for an adverse event or serious adverse event [10]: 18%
patients who discontinued for other reasons [10]: 4%
patients who discontinued for patient withdrawal [10]: 6%
effect on apoB mRNA, protein, and secreted protein (apoB mRNA): selectively reduced apoB mRNA, protein, and secreted protein in a concentration- and time-dependent manner

B1: evolocumab: anti-PCSK9 antibody (antibody, chains of the INN, looked up, V domains shown)
VH: EVQLVQSGAEVKKPGASVKVSCKASGYTLTSYGISWVRQAPGQGLEWMGWVSFYNGNTNYAQKLQGRGTMTTDPSTSTAYMELRSLRSDDTAVYYCARGYGMDVWGQGTTVTVSS
VL: ESALTQPASVSGSPGQSITISCTGTSSDVGGYNSVSWYQQHPGKAPKLMIYEVSNRPSGVSNRFSGSKSGNTASLTISGLQAEDEADYYCNSYTSTSMVFGGGTKLTVL
reduction of LDL-C levels [11]: more than 50%
effect on LDL-C relative to placebo (patients with HeFH [12]; 140 mg every 2 weeks or 420 mg every month sc): Significant reductions in LDL-C
muscle-related AEs (patients with HeFH [12]; in vivo): 5%
nasopharyngitis (patients with HeFH [12]; in vivo): 9%
tolerability (patients with HeFH [12]; in vivo): well tolerated
